Data on one compound can be found in article PMC6085350, “Small molecule inhibitors of RAS-effector protein interactions derived using an intracellular antibody fragment” (Nature Communications, 2018).

The assay deals with T1, KRAS^G12V-GppNHp + scFv complex (Homo sapiens, UniProt P01116, G12V).
T1 construct: GST (N); made in house; host or cells: E. coli
Nature of the assay: waterLOGSY NMR competition with anti-RAS scFv. Format: binding. The method, then:
The waterLOGSY NMR method[35] was used to measure RAS ligand interaction. WaterLOGSY experiments were conducted at a ^1H frequency of 600 MHz using a Bruker Avance spectrometer equipped with a BBI probe. All experiments were conducted at 298 K, 3 mm diameter NMR tubes with a sample final volume of 200 µl was used in all experiments. Solutions were buffered using an H2O 10 mM PBS, 5 mM MgCl2 buffer corrected to pH 7.4. The sample preparation is exemplified as follows, the compound (10 µl of a […] solution in DMSO-d6) was added to an eppendorf before sequential addition of the H2O PBS buffer (163.6 µl), D2O (20 µl), and protein (6.4 µl, 311.8 µM). The resulting solution was spun to ensure full mixing and transferred to a 3 mm NMR tube before running the experiment. For a competition experiment using Y6-scFv or VH, the preparation was carried out in a similar manner; the compound (10 µl of a 10 mM solution in DMSO-d6) was added to an eppendorf before sequential addition of the H2O PBS buffer (146.4 µl), D2O (20 µl), protein (6.4 µl, 311.8 µM) and Y6-ScFv (17.2 µl, 116.6 µM) with a ratio of 5.5:1:1. The resulting solution was spun and transferred to a 3 mm NMR tube before the run. […]
Supplementary Figure 3: Abd-2 WaterLOGSY NMR with and without anti RAS-scFV Abd-2 was analyzed by waterLOGSY. […]

Entries after “also recorded” stand apart in the source; their conditions may differ.

As for `O=C(NCC1COc2ccccc2O1)c1ccco1` (stereo not shown) [Abd-2], the “binding to KRAS^G12V-GppNHp in the presence of anti-RAS scFv (waterLOGSY)” value is on record as “no longer binds; also recorded: no binding”.
